Experimental data taken from US20090203577A1 (EXELIXIS, INC., priority 2005, published 2009).

Target: T1, human farnesoid X receptor (Homo sapiens, UniProt Q96RI1)
T1 construct: CMX-farnesoid X receptor (full length human farnesoid X receptor); expressed in transfected cells; host or cells: CV-1 African Green Monkey Kidney cells
T1 sequence (Q96RI1 1-472 isoform Q96RI1-2): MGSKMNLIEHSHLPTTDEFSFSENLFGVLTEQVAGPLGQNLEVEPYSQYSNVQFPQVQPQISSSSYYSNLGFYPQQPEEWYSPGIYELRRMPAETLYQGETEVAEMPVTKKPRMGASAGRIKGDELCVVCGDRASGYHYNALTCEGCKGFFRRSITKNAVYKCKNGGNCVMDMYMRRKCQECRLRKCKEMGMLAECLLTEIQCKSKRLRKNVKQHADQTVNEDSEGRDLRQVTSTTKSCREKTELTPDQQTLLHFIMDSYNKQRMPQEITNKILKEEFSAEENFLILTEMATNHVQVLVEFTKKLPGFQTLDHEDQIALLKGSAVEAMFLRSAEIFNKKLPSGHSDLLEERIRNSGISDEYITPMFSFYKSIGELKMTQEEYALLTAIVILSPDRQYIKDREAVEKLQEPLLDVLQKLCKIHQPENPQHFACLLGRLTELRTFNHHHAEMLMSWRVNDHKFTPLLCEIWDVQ
T1 sequence (P19793 1-462 partner): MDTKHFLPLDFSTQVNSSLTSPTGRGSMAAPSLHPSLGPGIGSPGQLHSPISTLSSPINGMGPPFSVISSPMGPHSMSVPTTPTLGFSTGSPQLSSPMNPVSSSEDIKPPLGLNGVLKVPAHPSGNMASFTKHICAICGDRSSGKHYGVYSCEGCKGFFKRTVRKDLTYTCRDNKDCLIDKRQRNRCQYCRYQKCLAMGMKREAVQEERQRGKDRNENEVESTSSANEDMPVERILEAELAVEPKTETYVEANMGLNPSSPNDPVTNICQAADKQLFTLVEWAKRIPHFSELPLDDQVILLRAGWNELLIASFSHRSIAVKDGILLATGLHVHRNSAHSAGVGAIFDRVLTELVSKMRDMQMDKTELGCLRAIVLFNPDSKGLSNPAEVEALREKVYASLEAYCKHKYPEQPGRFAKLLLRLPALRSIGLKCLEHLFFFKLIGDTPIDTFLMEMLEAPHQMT
Assay: FXR in vitro assays (farnesoid X receptor/ECREx7 co-transfection assay, TR-FRET assay), Table I
Type: cell-based
Details: for EC50: agonist activity, one or more of the in vitro assays, read-out: EC50; for Emax: read-out: % Efficacy
Summary of the method: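 CV-1 monkey kidney cells transfected for an FXR/ECREx7 luciferase co-transfection reporter; luciferase read 18-20 h later in lysates. 8-point dose-response at ½-log spacing, 4 wells per point; EC50/IC50 from four-parameter Hill fit, averaged over at least 3 independent experiments.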

`CC(C)OC(=O)C1=CN(C(=O)c2ccc(-n3cccn3)cc2)CC(C)(C)c2c1[nH]c1ccccc21` [Example 141, 1-methylethyl 1,1-dimethyl-3-{[4-(1H-pyrazol-1-yl)phenyl]carbonyl}-1,2,3,6-tetrahydroazepino[4,5-b]indole-5-carboxylate] was tested, and the EC50 was 0.01 to 0.1 µM and the Emax was greater than 100%.
In the case of `CC(C)OC(=O)C1=CN(C(=O)c2cccc(C#N)c2)CC(C)(C)c2c1[nH]c1ccccc21` [Example 142, 1-methylethyl 3-[(3-cyanophenyl)carbonyl]-1,1-dimethyl-1,2,3,6-tetrahydroazepino[4,5-b]indole-5-carboxylate], the EC50 is reported as 0.01 to 0.1 µM and the Emax is reported as greater than 100%.
With `CC(C)OC(=O)C1=CN(C(=O)c2ccc(Cl)cc2Cl)CC(C)(C)c2c1[nH]c1ccccc21` [Example 143, 1-methylethyl 3-[(2,4-dichlorophenyl)carbonyl]-1,1-dimethyl-1,2,3,6-tetrahydroazepino[4,5-b]indole-5-carboxylate] the EC50 was 0.01 to 0.1 µM and the Emax was greater than 100%.
With `Cc1cc(C(=O)N2C=C(C(=O)OC(C)C)c3[nH]c4ccccc4c3C(C)(C)C2)ccc1F` [Example 144, 1-methylethyl 3-[(4-fluoro-3-methylphenyl)carbonyl]-1,1-dimethyl-1,2,3,6-tetrahydroazepino[4,5-b]indole-5-carboxylate] the EC50 was 0.001 to 0.01 µM and the Emax was greater than 100%.
Work on `CC(C)OC(=O)C1=CN(C(=O)c2c(F)ccc(Cl)c2F)CC(C)(C)c2c1[nH]c1ccccc21` [Example 145, 1-methylethyl 3-[(3-chloro-2,6-difluorophenyl)carbonyl]-1,1-dimethyl-1,2,3,6-tetrahydroazepino[4,5-b]indole-5-carboxylate] yielded an EC50 of 0.1 to 1 µM and an Emax greater than 100%.
For `CC(C)OC(=O)C1=CN(C(=O)c2ccc(F)c(Cl)c2)CC(C)(C)c2c1[nH]c1ccccc21` [Example 147, 1-methylethyl 3-[(3-chloro-4-fluorophenyl)carbonyl]-1,1-dimethyl-1,2,3,6-tetrahydroazepino[4,5-b]indole-5-carboxylate], the EC50 was 0.001 to 0.01 µM and the Emax was greater than 100%.
For `CC(C)OC(=O)C1=CN(C(=O)c2ccc(Cl)c(Cl)c2)CC(C)(C)c2c1[nH]c1ccccc21` [Example 148, 1-methylethyl 3-[(3,4-dichlorophenyl)carbonyl]-1,1-dimethyl-1,2,3,6-tetrahydroazepino[4,5-b]indole-5-carboxylate], the EC50 was 0.01 to 0.1 µM and the Emax was greater than 100%.
Work on `CC(C)OC(=O)C1=CN(C(=O)c2cc(F)c(Cl)cc2F)CC(C)(C)c2c1[nH]c1ccccc21` [Example 149, 1-methylethyl 3-[(4-chloro-2,5-difluorophenyl)carbonyl]-1,1-dimethyl-1,2,3,6-tetrahydroazepino[4,5- ]indole-5-carboxylate] yielded an EC50 of 0.01 to 0.1 µM and an Emax greater than 100%.
With `CC(C)OC(=O)C1=CN(C(=O)c2cccc(CN3CCN(S(C)(=O)=O)CC3)c2)CC(C)(C)c2c1[nH]c1ccccc21` [Example 151, 1-methylethyl 1,1-dimethyl-3-[(3-{[4-(methylsulfonyl)piperazin-1-yl]methyl}phenyl)carbonyl]-1,2,3,6-tetrahydroazepino[4,5-b]indole-5-carboxylate] the EC50 was 0.1 to 1 µM and the Emax was greater than 100%.
`CC(C)OC(=O)C1=CN(C(=O)c2cccc(CN3CCCCCC3)c2)CC(C)(C)c2c1[nH]c1ccccc21` [Example 152, 1-methylethyl 3-{[3-(azepan-1-ylmethyl)phenyl]carbonyl}-1,1-dimethyl-1,2,3,6-tetrahydroazepino[4,5-b]indole-5-carboxylate] gave an EC50 of 0.01 to 0.1 µM and an Emax greater than 100%.
In the case of `CC(C)OC(=O)C1=CN(C(=O)c2cccc(CN3CCCN(C)CC3)c2)CC(C)(C)c2c1[nH]c1ccccc21` [Example 153, 1-methylethyl 1,1-dimethyl-3-({3-[(4-methyl-1,4-diazepan-1-yl)methyl]phenyl}carbonyl)-1,2,3,6-tetrahydroazepino[4,5-b]indole-5-carboxylate], the EC50 is reported as 1 to 10 µM and the Emax is reported as greater than 100%.
`CC(C)OC(=O)C1=CN(C(=O)c2ccc(F)c(Br)c2)CC(C)(C)c2c1[nH]c1ccccc21` [Example 154, 1-methylethyl 3-[(3-bromo-4-fluorophenyl)carbonyl]-1,1-dimethyl-1,2,3,6-tetrahydroazepino[4,5-b]indole-5-carboxylate] showed an EC50 of 0.01 to 0.1 µM and an Emax greater than 100%.
`CC(C)OC(=O)C1=CN(C(=O)c2cc(CN3CCOCC3)ccc2F)CC(C)(C)c2c1[nH]c1ccccc21` [Example 155, 1-methylethyl 3-{[2-fluoro-5-(morpholin-4-ylmethyl)phenyl]carbonyl}-1,1-dimethyl-1,2,3,6-tetrahydroazepino[4,5-b]indole-5-carboxylate] gave an EC50 of 0.1 to 1 µM and an Emax greater than 100%.
Compound `CC(C)OC(=O)C1=CN(C(=O)c2ccc3c(c2)nnn3C)CC(C)(C)c2c1[nH]c1ccccc21` [Example 157, 1-methylethyl 1,1-dimethyl-3-[(1-methyl-1H-1,2,3-benzotriazol-5-yl)carbonyl]-1,2,3,6-tetrahydroazepino[4,5-b]indole-5-carboxylate] has an EC50 of 0.01 to 0.1 µM and an Emax greater than 100%.
`CC(C)OC(=O)C1=CN(C(=O)c2cccc(OCCN3CCOCC3)c2)CC(C)(C)c2c1[nH]c1ccccc21` [Example 160, 1-methylethyl 1,1-dimethyl-3-({3-[(2-morpholin-4-ylethyl)oxy]phenyl}carbonyl)-1,2,3,6-tetrahydroazepino[4,5-b]indole-5-carboxylate] showed an Emax greater than 100%.
`CC1(C)CN(C(=O)c2ccc(F)c(F)c2)C=C(C(=O)NOCC(O)CO)c2[nH]c3ccccc3c21` (stereo not shown) [Example 161, 3-[(3,4-difluorophenyl)carbonyl]-N-[(2,3-dihydroxypropyl)oxy]-1,1-dimethyl-1,2,3,6-tetrahydroazepino[4,5-b]indole-5-carboxamide] was tested, and the EC50 was greater than 10 µM.
For `CC1(C)CN(C(=O)c2ccc(F)c(F)c2)C=C(C(=O)NCC(O)CO)c2[nH]c3ccccc3c21` (stereo not shown) [Example 162, 3-[(3,4-difluorophenyl)carbonyl]-N-(2,3-dihydroxypropyl)-1,1-dimethyl-1,2,3,6-tetrahydroazepino[4,5-b]indole-5-carboxamide], the EC50 was greater than 10 µM.
`CC1(C)CN(C(=O)c2ccc(F)c(F)c2)C=C(C(=O)NC(CO)CO)c2[nH]c3ccccc3c21` [Example 163, 3-[(3,4-difluorophenyl)carbonyl]-N-[2-hydroxy-1-(hydroxymethyl)ethyl]-1,1-dimethyl-1,2,3,6-tetrahydroazepino[4,5-b]indole-5-carboxamide] was tested, and the EC50 was 1 to 10 µM and the Emax was greater than 100%.
With `CC(C)OC(=O)C1=CN(C(=O)c2cccc(CN3CCN(C(=O)OC(C)(C)C)CC3)c2)CC(C)(C)c2c1[nH]c1ccccc21` [Example 166, 1-methyethyl 3-({3-[(4-{[(1,1-dimethylethyl)oxy]carbonyl}piperazin-1-yl)methyl]phenyl}carbonyl)-1,1-dimethyl-1,2,3,6-tetrahydroazepino[4,5-b]indole-5-carboxylate] the EC50 was 0.1 to 1 µM and the Emax was greater than 100%.
`CC(C)OC(=O)C1=CN(C(=O)c2cccc(CN3CCN(S(=O)(=O)c4ccccc4)CC3)c2)CC(C)(C)c2c1[nH]c1ccccc21` [Example 167, 1-methylethyl 1,1-dimethyl-3-[(3-{[4-(phenylsulfonyl)piperazin-1-yl]methyl}phenyl)carbonyl]-1,2,3,6-tetrahydroazepino[4,5-b]indole-5-carboxylate] showed an EC50 of 0.1 to 1 µM and an Emax greater than 100%.
`CC(C)OC(=O)C1=CN(C(=O)c2cccc(CN3CCN(S(=O)(=O)c4ccc(F)cc4)CC3)c2)CC(C)(C)c2c1[nH]c1ccccc21` [Example 168, 1-methylethyl 3-{[3-({4-[(4-fluorophenyl)sulfonyl]piper-azin-1-yl}methyl)phenyl]carbonyl}-1,1-dimethyl-1,2,3,6-tetrahydroazepino[4,5-b]indole-5-carboxylate] gave an EC50 of 0.1 to 1 µM and an Emax greater than 100%.
With `CCS(=O)(=O)N1CCN(Cc2cccc(C(=O)N3C=C(C(=O)OC(C)C)c4[nH]c5ccccc5c4C(C)(C)C3)c2)CC1` [Example 172, 1-methylethyl 3-[(3-{[4-(ethylsulfonyl)piperazin-1-yl]methyl}phenyl)carbonyl]-1,1-dimethyl-1,2,3,6-tetrahydroazepino[4,5-b]indole-5-carboxylate] the EC50 was 0.1 to 1 µM and the Emax was greater than 100%.
`CC(C)OC(=O)C1=CN(C(=O)c2cccc(CN3CCN(C(=O)C4CC4)CC3)c2)CC(C)(C)c2c1[nH]c1ccccc21` [Example 173, 1-methylethyl 3-[(3-{[4-(cyclopropylcarbonyl)piper-azin-1-yl]methyl}phenyl)carbonyl]-1,1-dimethyl-1,2,3,6-tetrahydroazepino[4,5-b]indole-5-carboxylate] gave an EC50 of 0.1 to 1 µM and an Emax greater than 100%.
